This note sets out measurements from patent US9278914B2, “SARMs and method of use thereof” (UNIVERSITY OF TENNESSEE RESEARCH FOUNDATION, priority 2004, dated 2016).

The test deals with intact male Sprague-Dawley rats. Kind of test: Anabolic and androgenic activity in intact male rats, daily oral gavage. It counts as in vivo, rat. As for the experimental part: The test article for this study was weighed and dissolved in 10% DMSO (Fisher) diluted with PEG 300 (Acros Organics, N.J.) for preparation of the appropriate dosage concentrations. The animals were housed in groups of 2 to 3 animals per cage. Animals were randomly assigned to one of seven groups consisting of 4 to 5 animals per group. Control groups (intact and ORX) were administered vehicle daily. […] Where appropriate, animals were castrated on day one of the study. Treatment with compound of formula S-II began nine days post ORX and was administered daily via oral gavage for fourteen days.
The animals were sacrificed under anesthesia (ketamine/xyalzine, 87:13 mg/kg) and body weights were recorded. In addition, ventral prostate, seminal vesicles, and levator ani muscle were removed, individually weighed, normalized to body weight, and expressed as a percentage of intact control. Student's T-test was used to compare individual dose groups to the intact control group. Significance was defined a priori as a P-value<0.05. Ventral prostate and seminal vesicle weights were evaluated as a measure of androgenic activity, whereas levator ani muscle weight was evaluated as a measure of anabolic activity. Blood was collected from the abdominal aorta, centrifuged, and sera were frozen at −80° C. prior to determination of serum hormone levels. Serum luteinizing hormone (LH) and follicle stimulating hormone (FSH) concentrations were determined.
(§1) The test article for this study was weighed and dissolved in 10% DMSO (Fisher) diluted with PEG 300 (Acros Organics, N.J.) for preparation of the appropriate dosage concentrations. The animals were housed in groups of 2 to 3 animals per cage. Animals were randomly assigned to one of seven groups consisting of 4 to 5 animals per group. Control groups (intact and ORX) were administered vehicle daily. Compound of formula S-XXIII was administered via oral gavage at doses of 0.01, 0.03, 0.1, 0.3, 0.75, and 1 mg/day to both intact and ORX groups. Where appropriate, animals were castrated on day one of the study. Treatment with compound of formula S-XXIII began nine days post ORX and was administered daily via oral gavage for fourteen days.
as §1, with “S-XXIV” for “S-XXIII”, “study.” for “study. Treatment with compound of formula S-XXIII began nine days post ORX and was administered daily via oral gavage for fourteen days.”

As for `C[C@](O)(COc1ccc(Cl)c(F)c1)C(=O)Nc1ccc(C#N)c(C(F)(F)F)c1` [S-II, (S)-3-(4-chloro-3-fluorophenoxy)-N-(4-cyano-3-(trifluoromethyl)phenyl)-2-hydroxy-2-methylpropanamide], the “Levator ani muscle weight” value by setting is: (0.01 mg/day oral) 100%±10%; (0.03 mg/day oral) 98%±7%; (0.1 mg/day oral) 110%±5%; (0.3 mg/day oral) 110%±5%; (0.75 mg/day oral) 125%±10%; (1 mg/day oral) 129%±10%. The Prostate weight is reported as 117%±20% (0.01 mg/day oral); 98%±15% (0.03 mg/day oral); 82%±20% (0.1 mg/day oral); 62%±5% (0.3 mg/day oral); 107%±30% (0.75 mg/day oral); 110%±14% (1 mg/day oral).
